Assay results from PMC8317200 (Journal of medicinal chemistry, 2020).
Residues, ends and D or L forms follow the SMILES beside them. *: point of attachment. Adamantane1carbonyl = O=C(C12CC3CC(CC(C3)C1)C2)*; NH(1-Adamantyl) = C1C2CC3CC1CC(N*)(C2)C3; Fmoc = O=C(OCC1c2ccccc2-c2ccccc21)*; Benzoyl(4-F) = O=C(c1ccc(F)cc1)*; Pyrrolidide = C1CCN(*)C1; Cbz = O=C(OCc1ccccc1)*; OcHex = C1CCC(O*)CC1; Bz = O=C(c1ccccc1)*; OtBu = CC(C)(C)O*; OAll = C=CCO*; X1 = C#CCO*

How the values were obtained:
[1] = target: T1, FGF14:Nav1.6 complex (Homo sapiens, UniProt Q92915); assay: Split-luciferase complementation assay; format: cell-based; conditions: for Inhibitory activity against FGF14:Nav1.6 complex assembly (in words): 50 μM screening; for activity at 50 µM: HEK293, 1 h, read-out: RLVs (%)
T1 sequence (Q92915 1-252 isoform Q92915-2): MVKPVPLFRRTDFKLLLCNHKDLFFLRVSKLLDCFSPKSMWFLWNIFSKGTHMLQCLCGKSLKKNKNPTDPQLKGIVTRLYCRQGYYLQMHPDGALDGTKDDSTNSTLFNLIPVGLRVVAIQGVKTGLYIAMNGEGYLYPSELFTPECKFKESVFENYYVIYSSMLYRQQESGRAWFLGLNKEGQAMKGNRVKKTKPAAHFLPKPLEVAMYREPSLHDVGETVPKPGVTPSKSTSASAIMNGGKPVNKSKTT

[2] = target: T2, FGF14 (Homo sapiens, UniProt Q92915); assay: Surface plasmon resonance; format: binding; conditions: for koff: read-out: koff FGF14; for kon: read-out: kon FGF14
T2 sequence (Q92915 64-252 isoform Q92915-2): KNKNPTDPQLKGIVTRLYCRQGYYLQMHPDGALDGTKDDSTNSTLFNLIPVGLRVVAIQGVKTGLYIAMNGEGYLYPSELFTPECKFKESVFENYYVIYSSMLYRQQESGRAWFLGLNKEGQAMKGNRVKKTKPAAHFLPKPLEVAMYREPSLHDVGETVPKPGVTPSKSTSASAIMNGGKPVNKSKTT

[3] = target: T3, CLuc-FGF14-1b (human) (UniProt Q92915); assay: split reporter
T3 sequence: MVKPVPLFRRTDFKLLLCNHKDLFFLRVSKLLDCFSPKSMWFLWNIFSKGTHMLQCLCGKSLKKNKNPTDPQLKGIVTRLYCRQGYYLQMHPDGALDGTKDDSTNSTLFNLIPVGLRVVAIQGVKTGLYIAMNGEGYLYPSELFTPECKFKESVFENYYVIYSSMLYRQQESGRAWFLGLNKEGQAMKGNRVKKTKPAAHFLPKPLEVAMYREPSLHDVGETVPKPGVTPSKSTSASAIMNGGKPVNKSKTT

Molecule: CC(C)C[C@H](NC(=O)[C@@H]1CCCN1C(=O)c1ccccc1)C(=O)N[C@@H](CCC(=O)OC(C)(C)C)C(=O)N[C@H](C(N)=O)C(C)C [Compound 13a, tert-Butyl (S)-5-(((S)-1-amino-3-methyl-1-oxobutan-2-yl)amino)-4-((S)-2-((S)-1-benzoylpyrrolidine-2-carboxamido)-4-methylpentanamido)-5-oxopentanoate] (Bz-PLE(OtBu)V-NH2)
- Inhibitory activity against FGF14:Nav1.6 complex assembly (in words) [1]: did not show any inhibitory activity

Molecule: CC(C)C[C@H](NC(=O)[C@@H]1CCCN1C(=O)c1ccc(F)cc1)C(=O)N[C@@H](CCC(=O)OC(C)(C)C)C(=O)N[C@H](C(N)=O)C(C)C [Compound 13f, tert-Butyl (S)-5-(((S)-1-amino-3-methyl-1-oxobutan-2-yl)amino)-4-((S)-2-((S)-1-(4-fluorobenzoyl)pyrrolidine-2-carboxamido)-4-methylpentanamido)-5-oxopentanoate] ({Benzoyl(4-F)}-PLE(OtBu)V-NH2)
- Inhibitory activity against FGF14:Nav1.6 complex assembly (in words) [1]: did not show any inhibitory activity
- activity at 50 µM [1]: 123 ± 3%

Molecule: CC(C)C[C@H](NC(=O)[C@@H]1CCCN1C(=O)OCc1ccccc1)C(=O)N[C@@H](CCC(=O)OC(C)(C)C)C(=O)N[C@H](C(=O)N1CCCC1)C(C)C [Compound 19e, Benzyl (S)-2-(((S)-1-(((S)-5-(tert-butoxy)-1-(((S)-3-methyl-1-oxo-1-(pyrrolidin-1-yl)butan-2-yl)amino)-1,5-dioxopentan-2-yl)amino)-4-methyl-1-oxopentan-2-yl)carbamoyl)pyrrolidine-1-carboxylate] (Cbz-PLE(OtBu)V-Pyrrolidide)
- koff [2]: 0.000991 s⁻¹
- kon [2]: 461 M⁻¹ s⁻¹

Molecule: CC(C)C[C@H](NC(=O)[C@@H]1CCCN1C(=O)OCc1ccccc1)C(=O)N[C@@H](CCC(=O)OC(C)(C)C)C(=O)N[C@H](C(=O)NC12CC3CC(CC(C3)C1)C2)C(C)C [Compound 19h, Benzyl (S)-2-(((S)-1-(((S)-1-(((S)-1-(((3R,5R,7R)-adamantan-1-yl)amino)-3-methyl-1-oxobutan-2-yl)amino)-5-(tert-butoxy)-1,5-dioxopentan-2-yl)amino)-4-methyl-1-oxopentan-2-yl)carbamoyl)pyrrolidine-1-carboxylate] (Cbz-PLE(OtBu)V-{NH(1-Adamantyl)})
- Inhibitory activity against FGF14:Nav1.6 complex assembly (in words) [1]: minimal inhibitory activity

Molecule: C=CCOC(=O)[C@@H](NC(=O)[C@H](CCC(=O)OC(C)(C)C)NC(=O)[C@H](CC(C)C)NC(=O)[C@@H]1CCCN1C(=O)OCc1ccccc1)C(C)C [Compound 19k, Benzyl (S)-2-(((S)-1-(((S)-1-(((S)-1-(allyloxy)-3-methyl-1-oxobutan-2-yl)amino)-5-(tert-butoxy)-1,5-dioxopentan-2-yl)amino)-4-methyl-1-oxopentan-2-yl)carbamoyl)pyrrolidine-1-carboxylate] (Cbz-PLE(OtBu)V-OAll)
- Binding by PTS and SPR (in words) ([2]; PTS and SPR): negligible binding

Molecule: COC(=O)[C@@H](NC(=O)[C@H](CCC(=O)OC(C)(C)C)NC(=O)[C@H](CC(C)C)NC(=O)[C@@H]1CCCN1C(=O)OCC1c2ccccc2-c2ccccc21)C(C)C [Compound 21b, (9H-Fluoren-9-yl)methyl (S)-2-(((S)-1-(((S)-5-(tert-butoxy)-1-(((S)-1-methoxy-3-methyl-1-oxobutan-2-yl)amino)-1,5-dioxopentan-2-yl)amino)-4-methyl-1-oxopentan-2-yl)carbamoyl)pyrrolidine-1-carboxylate] (Fmoc-PLE(OtBu)V-OMe)
- Inhibitory activity against FGF14:Nav1.6 complex assembly (in words) [1]: markedly reduced inhibitory activity

Molecule: COC(=O)[C@@H](NC(=O)[C@H](CCC(=O)OC(C)(C)C)NC(=O)[C@H](CC(C)C)NC(=O)[C@@H]1CCCN1C(C)=O)C(C)C [Compound 21c, tert-Butyl (S)-4-((S)-2-((S)-1-acetylpyrrolidine-2-carboxamido)-4-methylpentanamido)-5-(((S)-1-methoxy-3-methyl-1-oxobutan-2-yl)amino)-5-oxopentanoate] (Ac-PLE(OtBu)V-OMe)
- Inhibitory activity against FGF14:Nav1.6 complex assembly (in words) [1]: markedly reduced inhibitory activity

Molecule: C#CCOC(=O)[C@@H](NC(=O)[C@H](CCC(=O)OC(C)(C)C)NC(=O)[C@H](CC(C)C)NC(=O)[C@@H]1CCCN1C(=O)C12CC3CC(CC(C3)C1)C2)C(C)C [Compound 23b, tert-Butyl (4S)-4-((2S)-2-((2S)-1-((1R,3R)-adamantane-1-carbonyl)pyrrolidine-2-carboxamido)-4-methylpentanamido)-5-(((S)-3-methyl-1-oxo-1-(prop-2-yn-1-yloxy)butan-2-yl)amino)-5-oxopentanoate] (Adamantane1carbonyl-PLE(OtBu)V-X1)
- kon [2]: 25800 M⁻¹ s⁻¹

Molecule: CC(C)C[C@H](NC(=O)[C@@H]1CCCN1C(=O)C12CC3CC(CC(C3)C1)C2)C(=O)N[C@@H](CCC(=O)OC(C)(C)C)C(=O)N[C@H](C(=O)OC(C)(C)C)C(C)C [Compound 23d, tert-Butyl (4S)-4-((2S)-2-((2S)-1-((1R,3R)-adamantane-1-carbonyl)pyrrolidine-2-carboxamido)-4-methylpentanamido)-5-(((S)-1-(tert-butoxy)-3-methyl-1-oxobutan-2-yl)amino)-5-oxopentanoate] (Adamantane1carbonyl-PLE(OtBu)V-OtBu)
- koff [2]: 0.0058 s⁻¹
- kon [2]: 1620 M⁻¹ s⁻¹

Molecule: CC(C)C[C@H](NC(=O)[C@@H]1CCCN1C(=O)C12CC3CC(CC(C3)C1)C2)C(=O)N[C@@H](CCC(=O)OC(C)(C)C)C(=O)N[C@H](C(=O)OC1CCCCC1)C(C)C [Compound 23e, tert-Butyl (4S)-4-((2S)-2-((2S)-1-((1R,3R)-adamantane-1-carbonyl)pyrrolidine-2-carboxamido)-4-methylpentanamido)-5-(((S)-1-(cyclohexyloxy)-3-methyl-1-oxobutan-2-yl)amino)-5-oxopentanoate] (Adamantane1carbonyl-PLE(OtBu)V-OcHex)
- koff [2]: 0.0139 s⁻¹
- kon [2]: 7350 M⁻¹ s⁻¹

Molecule: COC(=O)CC[C@H](NC(=O)[C@H](CC(C)C)NC(=O)[C@@H]1CCCN1C(=O)OCc1ccccc1)C(=O)OC(C)(C)C [Compound 30, 1-(tert-Butyl) 5-methyl ((benzyloxy)carbonyl)-L-prolyl-L-leucyl-L-glutamate] (Cbz-Pro-Leu-Glu(OMe)-OtBu)
- activity at 50 µM [1]: > 100%

Molecule: CC(C)C[C@H](NC(=O)[C@@H]1CCCN1C(=O)OCc1ccccc1)C(=O)N[C@H](C(N)=O)C(C)C [Compound 31, Benzyl (S)-2-(((S)-1-(((S)-1-amino-3-methyl-1-oxobutan-2-yl)amino)-4-methyl-1-oxopentan-2-yl)carbamoyl)pyrrolidine-1-carboxylate] (Cbz-Pro-Leu-Val-NH2)
- activity at 50 µM [1]: > 100%

Molecule: COC(=O)[C@@H](NC(=O)[C@H](CC(C)C)NC(=O)[C@@H]1CCCN1C(=O)OCc1ccccc1)C(C)C [Compound 32, Benzyl (S)-2-(((S)-1-(((S)-1-methoxy-3-methyl-1-oxobutan-2-yl)amino)-4-methyl-1-oxopentan-2-yl)carbamoyl)pyrrolidine-1-carboxylate] (Cbz-Pro-Leu-Val-OMe)
- activity at 50 µM [1]: > 100%

B1: compound 23d (peptide)
peptide: Adamantane1carbonyl-PLE(OtBu)V-OtBu
SMILES: CC(C)C[C@H](NC(=O)[C@@H]1CCCN1C(=O)C12CC3CC(CC(C3)C1)C2)C(=O)N[C@@H](CCC(=O)OC(C)(C)C)C(=O)N[C@H](C(=O)OC(C)(C)C)C(C)C
- IC50 [3]: 33.9 µM
- efficacy (percent inhibition at the bottom plateau) [3]: 92.1%

B2: compound 23g (peptide)
peptide: Adamantane1carbonyl-PLE(OtBu)V-{O‑propyl}
- IC50 [3]: 22.5 µM
- efficacy (percent inhibition at the bottom plateau) [3]: 83.3%

B3: compound 23f (peptide)
peptide: Adamantane1carbonyl-PLE(OtBu)V-OEt
SMILES: CCOC(=O)[C@@H](NC(=O)[C@H](CCC(=O)OC(C)(C)C)NC(=O)[C@H](CC(C)C)NC(=O)[C@@H]1CCCN1C(=O)C12CC3CC(CC(C3)C1)C2)C(C)C
- IC50 [3]: 13.3 µM
- efficacy (percent inhibition at the bottom plateau) [3]: 82.3%

B4: compound 23a (peptide)
peptide: Adamantane1carbonyl-PLE(OtBu)V-{O‑allyl}
- IC50 [3]: 11.5 µM
- efficacy (percent inhibition at the bottom plateau) [3]: 95.5%

B5: compound 23e (peptide)
peptide: Adamantane1carbonyl-PLE(OtBu)V-{O‑cyclohexyl}
- IC50 [3]: 35.3 µM
- efficacy (percent inhibition at the bottom plateau) [3]: 69.9%

B6: compound 21a (peptide)
peptide: Adamantane1carbonyl-PLE(OtBu)V-OMe
SMILES: COC(=O)[C@@H](NC(=O)[C@H](CCC(=O)OC(C)(C)C)NC(=O)[C@H](CC(C)C)NC(=O)[C@@H]1CCCN1C(=O)C12CC3CC(CC(C3)C1)C2)C(C)C
- IC50 [3]: 20.4 µM
- efficacy (percent inhibition at the bottom plateau) [3]: 96.1%

B7: compound 23b (peptide)
peptide: Adamantane1carbonyl-PLE(OtBu)V-{O‑propargyl}
- IC50 [3]: 13.8 µM
- efficacy (percent inhibition at the bottom plateau) [3]: 96.6%
